According to publication PMC13252604, “First Generation Proteolysis Targeting Chimeras (PROTACs) for the Treatment of Progeria” (Advanced Science, 2026):

Key:
progerin = target: T1, progerin (Mus musculus, UniProt P48678, DEL608-657); experiment: Progerin degradation, immunoblot in Lmna^G609G/G609G fibroblasts; type: cell-based; conditions: Lmna^G609G/G609G fibroblasts, 5 µM, 8 h, vs vehicle
T1 construct: endogenous in cells; host or cells: immortalized (SV40-LT) fibroblasts from Lmna G609G/G609G mice
T1 sequence (P48678 with tags, fused parts or gaps DEL608-657 limits assumed): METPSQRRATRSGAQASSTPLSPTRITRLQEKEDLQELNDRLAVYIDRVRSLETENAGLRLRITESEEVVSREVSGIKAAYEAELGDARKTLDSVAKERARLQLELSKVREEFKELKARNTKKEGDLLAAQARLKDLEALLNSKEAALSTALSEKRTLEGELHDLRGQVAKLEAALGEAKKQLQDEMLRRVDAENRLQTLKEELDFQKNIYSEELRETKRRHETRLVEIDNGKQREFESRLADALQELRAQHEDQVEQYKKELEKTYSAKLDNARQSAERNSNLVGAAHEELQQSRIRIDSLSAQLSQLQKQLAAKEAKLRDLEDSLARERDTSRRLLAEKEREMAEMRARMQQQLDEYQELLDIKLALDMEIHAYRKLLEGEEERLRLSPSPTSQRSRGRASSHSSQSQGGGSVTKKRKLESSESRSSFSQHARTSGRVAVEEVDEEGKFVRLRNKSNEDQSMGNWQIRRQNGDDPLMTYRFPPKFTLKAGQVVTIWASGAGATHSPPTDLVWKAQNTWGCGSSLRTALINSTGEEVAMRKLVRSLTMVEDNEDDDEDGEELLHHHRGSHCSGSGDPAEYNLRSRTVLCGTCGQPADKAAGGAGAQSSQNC
Description: The ability of compounds 2‐6 to degrade progerin was evaluated in Lmna^G609G/G609G fibroblasts, derived from the progeria mouse model that most closely replicates the human disease phenotype. Lamin A/C antibody was used for immunodetection due to its prevalent use in this context, enabling simultaneous visualization of both lamins and progerin [15].
FIGURE 2 (A) Representative cropped immunoblots and quantification of progerin from Lmna^G609G/G609G fibroblasts. Cells were incubated with vehicle or indicated compound at 5 µM for 8 h. MW, molecular weight (in kDa) markers. (B, C) Concentration and time‐dependency of the reduction of progerin levels induced by compounds 2 and 9. Graphs show quantification of progerin in Lmna^G609G/G609G fibroblasts (immunoblots are shown in Supporting Figure S1). Cells were incubated with vehicle or the indicated compound concentration for 8 h. For time‐course experiments, cells were incubated with vehicle or indicated compound at 5 µM. Bar graphs show mean±sem of 3 independent experiments performed in duplicate. Data were analysed using one‐way ANOVA followed by Dunnett's post–hoc test comparing all groups to the vehicle; ^*, p < 0.05. […]
4. Cell lines and culture.
Progeroid mouse fibroblasts, kindly donated by Prof. Carlos López Otín (Oviedo University, Spain), were isolated from LmnaG609G/G609G mice[19] and wild-type (WT) littermates and immortalized by retroviral transduction with SV40 large T antigen (SV40-LT). Since LmnaG609G/G609G mouse represents the most suitable and widely accepted model of HGPS, as it most faithfully recapitulates the molecular and phenotypic features of the human disease, its use in this study is fully justified. Moreover, although this cell […]
cells have been extensively validated by additional independent studies.[15, 65, 66] […]
experiments, nor does it affect the conclusions presented in our study.
Mouse fibroblasts were grown in Dulbecco’s modified eagle medium (DMEM, Gibco) supplemented with 10% heat inactivated fetal bovine serum (FBS, Gibco), 50 U/mL penicillin, and 50 μg/mL streptomycin (Invitrogen). Human progeroid HGADFN167 LmnaG608G/G608G (G608G) or or healthy HGADFN168 Lmna+/+ (WT) fibroblasts, were obtained from The Progeria Research Foundation (RRIDs CVCL_1Y92 and CVCL_1Y93, respectively) and cultured in DMEM with 20% heat inactivated FBS, 50 U/mL penicillin and 50 μg/mL streptomycin. All cells were incubated in a humidified atmosphere at 37 °C in the presence of 5% CO2 and were confirmed to be free of mycoplasma contamination. […]
Measurements were performed in triplicate, and each experiment was repeated at least three times. The viability values were calculated from the percentage of viable cells with respect to 100% viability of the vehicle-treated cells.
6. Immunoblot and immunocytofluorescence analysis.
Mouse or human progeroid cells were seeded at density of […] or 5 x 10^4 cells respectively on 12-well plates and incubated for 24 h in DMEM medium. For proteosome-dependency assays, cells were pre-treated either with the proteasome inhibitor (S)-MG132 (20 µM) or with the NEDD8-activating enzyme inhibitor MLN4924 (5 µM) for 2 h prior to […]
compound exposure. Then, cells were incubated with compound of interest or DMSO for the appropriate time and lysed with cold laemmli buffer (50 mM Tris-HCl pH 7.4, 150 mM NaCl, 1% Igepal) with a mixture of protease and phosphatase inhibitors (1 mM PMSF, 10 mM NaF, 0.3 mg/mL CalyculinA, 1 mM sodium orthovanadate, 10 mM β-glycerol-phosphate; all from Sigma-Aldrich and complete protease inhibitor cocktail, from Roche). Proteins were denatured at 95 ᵒC for 5 min and the lysates were immediately used or stored at -20 ᵒC until use. Samples were analysed by electrophoresis in polyacrylamide gels (All Kd SDS-PAGE, BioRad) and the proteins transferred to nitrocellulose membranes (GE Healthcare, Amersham). After 1 h of incubation in blocking buffer [20 mM Tris pH 7.6, 150 mM NaCl and 0.1% Tween-20 (TBS-T) with […]

[1] = system: Hutchinson‐Gilford Progeria Syndrome; conditions: progeria patients; cited from earlier work

Row | Compound | progerin levels (immunoblot quantification) (progerin) | effect on key phenotypic hallmarks of progeria [1] | extension of average life expectancy [1]
1 | CC1(C)Oc2cc3oc(=O)ccc3cc2C[C@@H]1OC(=O)CCCCCOc1ccc(C2CCC(=O)NC2=O)cc1 (some centres unmarked) [compound 10] | neither the glutarimide derivative 10 nor the VHL‐ligand‐containing compound 11 led to a significant reduction in progerin levels |  | 
2 | Cc1ncsc1-c1ccc(CNC(=O)[C@@H]2C[C@@H](O)CN2C(=O)[C@@H](NC(=O)CCCCC(=O)O[C@H]2Cc3cc4ccc(=O)oc4cc3OC2(C)C)C(C)(C)C)cc1 [compound 11] | neither the glutarimide derivative 10 nor the VHL‐ligand‐containing compound 11 led to a significant reduction in progerin levels |  | 
3 | CN1C(=O)CCC(N2C(=O)c3cccc(NCCCCCC(=O)O[C@H]4Cc5cc6ccc(=O)oc6cc5OC4(C)C)c3C2=O)C1=O (some centres unmarked) [compound 13] | ineffective in lowering progerin levels |  | 
4 | NC(=O)N1CCC(CC(=O)N2CCC([C@H]3c4ncc(Br)cc4CCc4cc(Cl)cc(Br)c43)CC2)CC1 [lonafarnib] |  | does not improve some of the key phenotypic hallmarks of progeria | up to 33%
